Laboratory results published in the supplement of paper PMC10307832.

How the values were obtained:
Test in all cases: relative viability (nuclei count vs DMSO), 5 days (fraction); higher = more cells survive
Dinaciclib + Lapatinib = compound: CCc1cnn2c(NCc3ccc[n+]([O-])c3)cc(N3CCCC[C@H]3CCO)nc12 [Dinaciclib] + CS(=O)(=O)CCNCc1ccc(-c2ccc3ncnc(Nc4ccc(OCc5cccc(F)c5)c(Cl)c4)c3c2)o1 [Lapatinib] (partner 2 µM)
Method in brief: (§1)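 Relative viability equals treated-well nuclei counts divided by vehicle-well nuclei counts. Counts came from 4× images of lung cancer cell lines grown in 1536-well plates for 5 days after pin-tool dosing on the day after seeding. Dosing used one drug alone or a fixed anchor-drug dose plus five library-drug doses (not always all listed) in √10 steps, and values are medians of duplicate plates.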

Dinaciclib + Pictilisib = compound: CCc1cnn2c(NCc3ccc[n+]([O-])c3)cc(N3CCCC[C@H]3CCO)nc12 [Dinaciclib] + CS(=O)(=O)N1CCN(Cc2cc3nc(-c4cccc5[nH]ncc45)nc(N4CCOCC4)c3s2)CC1 [Pictilisib] (partner 1 µM)
Method in brief: as §1

Dinaciclib + Alpelisib = compound: CCc1cnn2c(NCc3ccc[n+]([O-])c3)cc(N3CCCC[C@H]3CCO)nc12 [Dinaciclib] + Cc1nc(NC(=O)N2CCC[C@H]2C(N)=O)sc1-c1ccnc(C(C)(C)C(F)(F)F)c1 [Alpelisib] (partner 2 µM)
Method in brief: as §1

Dinaciclib + Dasatinib = compound: CCc1cnn2c(NCc3ccc[n+]([O-])c3)cc(N3CCCC[C@H]3CCO)nc12 [Dinaciclib] + Cc1nc(Nc2ncc(C(=O)Nc3c(C)cccc3Cl)s2)cc(N2CCN(CCO)CC2)n1 [Dasatinib] (partner 0.075 µM)
Method in brief: as §1

Dinaciclib + Phenformin = compound: CCc1cnn2c(NCc3ccc[n+]([O-])c3)cc(N3CCCC[C@H]3CCO)nc12 [Dinaciclib] + N=C(N)NC(=N)NCCc1ccccc1 [Phenformin] (partner 250 µM)
Method in brief: as §1

Row | Cell Line | relative viability (Dinaciclib + Lapatinib; first compound 0.009487 µM) | relative viability (Dinaciclib + Lapatinib; first compound 0.03 µM) | relative viability (Dinaciclib + Lapatinib; first compound 0.09487 µM) | relative viability (Dinaciclib + Lapatinib; first compound 0.3 µM) | relative viability (Dinaciclib + Pictilisib; first compound 0.009487 µM) | relative viability (Dinaciclib + Pictilisib; first compound 0.03 µM) | relative viability (Dinaciclib + Pictilisib; first compound 0.09487 µM) | relative viability (Dinaciclib + Pictilisib; first compound 0.3 µM) | relative viability (Dinaciclib + Alpelisib; first compound 0.009487 µM) | relative viability (Dinaciclib + Alpelisib; first compound 0.03 µM) | relative viability (Dinaciclib + Alpelisib; first compound 0.09487 µM) | relative viability (Dinaciclib + Alpelisib; first compound 0.3 µM) | relative viability (Dinaciclib + Dasatinib; first compound 0.009487 µM) | relative viability (Dinaciclib + Dasatinib; first compound 0.03 µM) | relative viability (Dinaciclib + Dasatinib; first compound 0.09487 µM) | relative viability (Dinaciclib + Dasatinib; first compound 0.3 µM) | relative viability (Dinaciclib + Phenformin; first compound 0.009487 µM) | relative viability (Dinaciclib + Phenformin; first compound 0.03 µM) | relative viability (Dinaciclib + Phenformin; first compound 0.09487 µM) | relative viability (Dinaciclib + Phenformin; first compound 0.3 µM)
1 | NCI-H358 | 0.341 | 0.216 | 0.196 | 0.188 | 0.272 | 0.185 | 0.174 | 0.176 | 0.61 | 0.14 | 0.161 | 0.183 | 0.182 | 0.0918 | 0.0845 | 0.0762 | 0.268 | 0.078 | 0.0729 | 0.0856
2 | NCI-H460 | 0.089 | 0.0117 | 0.011 | 0.0113 | 0.264 | 0.0398 | 0.0429 | 0.0452 | 0.383 | 0.0074 | 0.0122 | 0.0084 | 0.453 | 0.0263 | 0.0179 | 0.021 | 0.296 | 0.0189 | 0.0192 | 0.0198
3 | NCI-H520 | 0.509 | 0.115 | 0.104 | 0.141 | 0.25 | 0.169 | 0.0942 | 0.165 | 0.601 | 0.148 | 0.141 | 0.147 | 0.201 | 0.151 | 0.165 | 0.155 | 0.476 | 0.203 | 0.167 | 0.166
4 | NCI-H596 | 0.943 | 0.341 | 0.187 | 0.16 | 0.418 | 0.245 | 0.157 | 0.106 | 0.517 | 0.426 | 0.105 | 0.154 | 0.675 | 0.643 | 0.232 | 0.178 | 0.875 | 0.692 | 0.438 | 0.216
5 | NCI-H647 | 0.31 | 0.0588 | 0.0482 | 0.0727 | 0.493 | 0.0803 | 0.0566 | 0.0473 | 0.585 | 0.055 | 0.0588 | 0.0651 | 0.104 | 0.0306 | 0.0319 | 0.042 | 0.302 | 0.0795 | 0.059 | 0.0723
6 | NCI-H650 | 0.566 | 0.171 | 0.0978 | 0.146 | 0.872 | 0.218 | 0.135 | 0.134 | 1.21 | 0.192 | 0.165 | 0.176 | 0.36 | 0.169 | 0.154 | 0.164 | 0.407 | 0.201 | 0.159 | 0.154
7 | NCI-H661 | 0.41 | 0.183 | 0.181 | 0.191 | 0.346 | 0.181 | 0.175 | 0.177 | 0.346 | 0.147 | 0.176 | 0.152 | 0.38 | 0.144 | 0.17 | 0.132 | 0.192 | 0.209 | 0.185 | 0.185
8 | NCI-H727 | 0.644 | 0.238 | 0.222 | 0.228 | 0.297 | 0.173 | 0.196 | 0.134 | 0.488 | 0.159 | 0.163 | 0.164 | 0.344 | 0.263 | 0.209 | 0.325 | 0.648 | 0.284 | 0.256 | 0.21
9 | NCI-H838 | 0.239 | 0.106 | 0.0848 | 0.109 | 0.28 | 0.117 | 0.111 | 0.101 | 0.916 | 0.149 | 0.11 | 0.123 | 0.176 | 0.173 | 0.143 | 0.138 | 0.247 | 0.117 | 0.0955 | 0.104
10 | NCI-H1355 | 0.979 | 0.681 | 0.142 | 0.138 | 0.476 | 0.146 | 0.0972 | 0.133 | 0.933 | 0.233 | 0.141 | 0.159 | 0.815 | 0.419 | 0.147 | 0.159 | 0.502 | 0.319 | 0.183 | 0.184
11 | NCI-H1395 | 0.506 | 0.314 | 0.292 | 0.276 | 0.483 | 0.248 | 0.269 | 0.248 | 0.903 | 0.304 | 0.312 | 0.303 | 0.411 | 0.289 | 0.268 | 0.228 | 0.453 | 0.306 | 0.301 | 0.248
12 | NCI-H1437 | 0.637 | 0.115 | 0.0859 | 0.0933 | 0.378 | 0.0843 | 0.0843 | 0.0936 | 0.87 | 0.182 | 0.0937 | 0.094 | 0.411 | 0.102 | 0.103 | 0.0897 | 0.279 | 0.187 | 0.17 | 0.13
13 | NCI-H1563 | 1.24 | 0.489 | 0.411 | 0.423 | 0.655 | 0.326 | 0.296 | 0.284 | 1.09 | 0.459 | 0.388 | 0.302 | 0.448 | 0.307 | 0.133 | 0.123 | 0.745 | 0.365 | 0.259 | 0.236
